In patent US4868321A, “Isothiocyanate intermediates” (FMC Corporation, priority 1988, dated 1989) one finds plant injury and pest or weed control data, which are given here for 5 molecules.

What all share (format): in vivo
Assay [1] relates to Cotton. Nature of the assay: Postemergence Herbicidal Activity, Cotton. The settings on record: Gossypium hirsutum, post-emergence; for plant injury at 1000 g/ha: 1.0 kg/ha; for plant injury at 500 g/ha: 0.5 kg/ha. An outline of the steps:
(§1)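 Read-out is percent control (% C) at application rates expressed in kilograms per hectare. Compounds were generally delivered in a 50/50 acetone/water solution, either before emergence or onto emerged plants.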

The test system of assay [2] is Field Bindweed. Description: Preemergence Herbicidal Activity, Field Bindweed. The settings on record: pre-emergence; for pest or weed control at 1000 g/ha: 1.0 kg/ha; for pest or weed control at 500 g/ha: 0.5 kg/ha. An outline of the steps:
as §1

Assay [3] relates to Field Bindweed. Nature of the assay: Postemergence Herbicidal Activity, Field Bindweed. Conditions: post-emergence; for pest or weed control at 1000 g/ha: 1.0 kg/ha; for pest or weed control at 500 g/ha: 0.5 kg/ha. An outline of the steps:
as §1

Assay [4] relates to Soybean. Description: Preemergence Herbicidal Activity, Soybean. The settings on record: Glycine max, pre-emergence; for plant injury at 1000 g/ha: 1.0 kg/ha; for plant injury at 500 g/ha: 0.5 kg/ha. Summed up: (§2)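 Percent control of the crop served as the read-out, with dosing stated in kilograms per hectare.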
The test system of assay [5] is Rice. Description: Postemergence Herbicidal Activity, Rice. Conditions: Oryza sativa, post-emergence; for plant injury at 1000 g/ha: 1.0 kg/ha; for plant injury at 500 g/ha: 0.5 kg/ha. Summed up:
as §2

Assay [6] has as its system Wheat. Nature of the assay: Postemergence Herbicidal Activity, Wheat. Conditions: Triticum aestivum, post-emergence; for plant injury at 1000 g/ha: 1.0 kg/ha; for plant injury at 500 g/ha: 0.5 kg/ha. An outline of the steps:
as §2

Assay [7] deals with Wheat. Description: Preemergence Herbicidal Activity, Wheat. Conditions: Triticum aestivum, pre-emergence; for plant injury at 1000 g/ha: 1.0 kg/ha; for plant injury at 500 g/ha: 0.5 kg/ha. An outline of the steps: as §2
Assay [8] relates to Cotton. Description: Preemergence Herbicidal Activity, Cotton. The settings on record: Gossypium hirsutum, pre-emergence; for plant injury at 1000 g/ha: 1.0 kg/ha; for plant injury at 500 g/ha: 0.5 kg/ha. An outline of the steps: as §1
Assay [9] relates to Field Corn. Description: Postemergence Herbicidal Activity, Field Corn. The settings on record: Zea mays, post-emergence; for plant injury at 1000 g/ha: 1.0 kg/ha; for plant injury at 500 g/ha: 0.5 kg/ha. Summed up:
as §2

Assay [10] relates to Velvetleaf. Nature of the assay: Preemergence Herbicidal Activity, Velvetleaf. The settings on record: Abutilon theophrasti, pre-emergence; for pest or weed control at 1000 g/ha: 1.0 kg/ha; for pest or weed control at 500 g/ha: 0.5 kg/ha. An outline of the steps: as §1
The test system of assay [11] is Barnyardgrass. Nature of the assay: Postemergence Herbicidal Activity, Barnyardgrass. The settings on record: Echinochloa crus-galli, post-emergence; for pest or weed control at 1000 g/ha: 1.0 kg/ha; for pest or weed control at 500 g/ha: 0.5 kg/ha. An outline of the steps:
(§3)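 Efficacy is recorded as percent control at each application rate, expressed in kg/ha.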

The subject of assay [12] is Morningglory. Nature of the assay: Postemergence Herbicidal Activity, Morningglory. Conditions: Ipomoea, post-emergence; for pest or weed control at 1000 g/ha: 1.0 kg/ha; for pest or weed control at 500 g/ha: 0.5 kg/ha. Summed up: as §1
For assay [13], the system named is Morningglory. Description: Preemergence Herbicidal Activity, Morningglory. The settings on record: Ipomoea, pre-emergence; for pest or weed control at 1000 g/ha: 1.0 kg/ha; for pest or weed control at 500 g/ha: 0.5 kg/ha. An outline of the steps: as §1
The subject of assay [14] is Barnyardgrass. Nature of the assay: Preemergence Herbicidal Activity, Barnyardgrass. The settings on record: Echinochloa crus-galli, pre-emergence; for pest or weed control at 1000 g/ha: 1.0 kg/ha; for pest or weed control at 500 g/ha: 0.5 kg/ha. An outline of the steps: as §3
The test system of assay [15] is Johnsongrass. Description: Postemergence Herbicidal Activity, Johnsongrass. The settings on record: Sorghum halepense, post-emergence; for pest or weed control at 1000 g/ha: 1.0 kg/ha; for pest or weed control at 500 g/ha: 0.5 kg/ha. Summed up: as §3
The subject of assay [16] is Soybean. Description: Postemergence Herbicidal Activity, Soybean. Conditions: Glycine max, post-emergence; for plant injury at 1000 g/ha: 1.0 kg/ha; for plant injury at 500 g/ha: 0.5 kg/ha. An outline of the steps: as §2
The test system of assay [17] is Velvetleaf. Nature of the assay: Postemergence Herbicidal Activity, Velvetleaf. Conditions: Abutilon theophrasti, post-emergence; for pest or weed control at 1000 g/ha: 1.0 kg/ha; for pest or weed control at 500 g/ha: 0.5 kg/ha. Summed up: as §1
Assay [18] has as its system Green Foxtail. Description: Preemergence Herbicidal Activity, Green Foxtail. Conditions: Setaria viridis, pre-emergence; for pest or weed control at 1000 g/ha: 1.0 kg/ha; for pest or weed control at 500 g/ha: 0.5 kg/ha. An outline of the steps: as §3
Assay [19] has as its system Johnsongrass. Nature of the assay: Preemergence Herbicidal Activity, Johnsongrass. Conditions: Sorghum halepense, pre-emergence; for pest or weed control at 1000 g/ha: 1.0 kg/ha; for pest or weed control at 500 g/ha: 0.5 kg/ha. An outline of the steps:
as §3

The test system of assay [20] is Green Foxtail. Nature of the assay: Postemergence Herbicidal Activity, Green Foxtail. The settings on record: Setaria viridis, post-emergence; for pest or weed control at 1000 g/ha: 1.0 kg/ha; for pest or weed control at 500 g/ha: 0.5 kg/ha. Summed up:
as §3

For assay [21], the system named is Field Corn. Description: Preemergence Herbicidal Activity, Field Corn. Conditions: Zea mays, pre-emergence; for plant injury at 1000 g/ha: 1.0 kg/ha; for plant injury at 500 g/ha: 0.5 kg/ha. Summed up:
as §2

In assay [22] the test system is Rice. Nature of the assay: Preemergence Herbicidal Activity, Rice. Conditions: Oryza sativa, pre-emergence; for plant injury at 1000 g/ha: 1.0 kg/ha; for plant injury at 500 g/ha: 0.5 kg/ha. An outline of the steps:
as §2

For orientation: plant injury means the degree to which the test organism was suppressed or injured, in per cent. Broadly, the pest or weed control is the degree to which the test organism was suppressed or injured, in per cent. `CS(=O)(=O)Nc1cc(-n2nnn(CCCF)c2=O)c(Cl)cc1F` [Compound 38, 1-[2-Chloro-4-fluoro-5-(N--methylsulfonylamino)phenyl]-4,5-dihydro-4-(3-fluoropropyl)-5H--tetrazol-5-one]: the plant injury at 1000 g/ha in the assay on Cotton [1] stood at 95%; in the assay on Soybean [4], 50%; in the assay with Rice [5], 20%; in the assay with Wheat [6], 50%; with Wheat [7] it was 10%; in the assay on Cotton [8] it was 70%. The plant injury at 1000 g/ha in the assay on Field Corn [9] was found to be 50%; with Soybean [16], 90%; in the assay on Field Corn [21], 10%; with Rice [22], 40%. Besides, the pest or weed control at 1000 g/ha with Field Bindweed [2] is 95%; in the assay on Field Bindweed [3] it was 100%; in the assay with Velvetleaf [10], 100%; in the assay on Barnyardgrass [11], 50%; in the assay on Morningglory [12] it was 100%; in the assay with Morningglory [13], 100%. In addition, the pest or weed control at 1000 g/ha stood at 80% in the assay on Barnyardgrass [14]; 80% with Johnsongrass [15]; 100% with Velvetleaf [17]; 80% in the assay on Green Foxtail [18]; 40% in the assay with Johnsongrass [19]; 80% with Green Foxtail [20].
As to `CS(=O)(=O)N(c1cc(-n2nnn(CCCF)c2=O)c(F)cc1F)S(C)(=O)=O` [Compound 8, 1-[2,4-difluoro-5-[bis(N--methylsulfonyl)amino]phenyl]-1,4-dihydro-4-(3-fluoropropyl)-5H--tetrazol-5-one], the plant injury at 500 g/ha in the assay with Cotton [1] came to 95%; in the assay on Soybean [4], 30%; with Rice [5], 20%; in the assay on Wheat [6], 30%; in the assay with Wheat [7] it was 10%; with Cotton [8], 95%. Also, the plant injury at 500 g/ha amounted to 50% with Field Corn [9], 40% in the assay on Soybean [16], 40% with Field Corn [21] and 70% in the assay with Rice [22]. The pest or weed control at 500 g/ha was 40% in the assay with Field Bindweed [2]; 30% with Field Bindweed [3]; 100% in the assay on Velvetleaf [10]; 40% in the assay with Barnyardgrass [11]; 40% in the assay with Morningglory [12]; 60% with Morningglory [13]. Also, the pest or weed control at 500 g/ha in the assay with Barnyardgrass [14] is 40%; in the assay on Johnsongrass [15] it was 30%; in the assay on Velvetleaf [17], 95%; with Green Foxtail [18] it was 50%; in the assay on Johnsongrass [19], 50%; in the assay on Green Foxtail [20], 50%.
As for `CCCS(=O)(=O)N(c1cc(-n2nnn(CCCF)c2=O)c(F)cc1Br)S(=O)(=O)CCC` [Compound 27], the plant injury at 1000 g/ha was 100% in the assay with Cotton [1]; 30% with Soybean [4]; 30% in the assay on Rice [5]; 80% in the assay on Wheat [6]; 60% in the assay on Wheat [7]; 95% with Cotton [8]. In addition, the plant injury at 1000 g/ha with Field Corn [9] turned out to be 95%; with Soybean [16] it was 90%; in the assay on Field Corn [21], 95%; in the assay on Rice [22], 60%. For the same molecule, the pest or weed control at 1000 g/ha with Field Bindweed [2] was determined as 100%; with Field Bindweed [3] it was 95%; in the assay on Velvetleaf [10], 100%; with Barnyardgrass [11], 100%; with Morningglory [12], 100%; with Morningglory [13], 100%. Also, the pest or weed control at 1000 g/ha is 100% with Barnyardgrass [14]; 100% with Johnsongrass [15]; 100% with Velvetleaf [17]; 100% with Green Foxtail [18]; 95% with Johnsongrass [19]; 100% in the assay on Green Foxtail [20].
For `CCS(=O)(=O)N(c1cc(-n2nnn(CCCF)c2=O)c(F)cc1F)S(=O)(=O)CC` [Compound 20, 1-(2,4-difluoro-5-[bis(N--ethylsulfonyl)amino]phenyl]-1,4-dihydro-4-(3-fluoropropyl)-5H--tetrazol-5-one], the plant injury at 500 g/ha amounted to 90% in the assay on Cotton [1]; 20% in the assay with Soybean [4]; 20% with Rice [5]; 50% in the assay with Wheat [6]; 30% in the assay on Wheat [7]; 90% with Cotton [8]. Moreover, the plant injury at 500 g/ha came out at 20% with Field Corn [9], 30% in the assay with Soybean [16], 90% with Field Corn [21] and 70% in the assay with Rice [22]. Also, the pest or weed control at 500 g/ha with Field Bindweed [2] worked out at 20%; with Field Bindweed [3] it was 30%; in the assay with Velvetleaf [10], 100%; in the assay with Barnyardgrass [11] it was 30%; in the assay on Morningglory [12] it was 90%; with Morningglory [13], 70%. For the same molecule, the pest or weed control at 500 g/ha in the assay with Barnyardgrass [14] was 90%; in the assay on Johnsongrass [15], 30%; in the assay on Velvetleaf [17], 100%; in the assay with Green Foxtail [18] it was 95%; in the assay with Johnsongrass [19], 90%; in the assay on Green Foxtail [20], 40%.
`CCCS(=O)(=O)Nc1cc(-n2nnn(CCCF)c2=O)c(F)cc1Cl` [Compound 28, 1-[4-Chloro-2-fluoro-5-(N--propylsulfonylamino)phenyl]-1,4-dihydro-4-(3-fluoropropyl)-5H--tetrazol-5-one]: the plant injury at 500 g/ha in the assay with Cotton [1] was 100%; with Soybean [4], 0%; in the assay with Rice [5] it was 70%; in the assay on Wheat [6], 60%; with Wheat [7], 30%; in the assay on Cotton [8], 100%. In addition, the plant injury at 500 g/ha was 40% in the assay with Field Corn [9], 30% in the assay with Soybean [16], 30% in the assay with Field Corn [21] and 70% with Rice [22]. Further, the pest or weed control at 500 g/ha in the assay on Field Bindweed [2], in the assay on Field Bindweed [3], in the assay on Velvetleaf [10], in the assay with Barnyardgrass [11], in the assay with Morningglory [12] and with Morningglory [13] was 100% in each case. The pest or weed control at 500 g/ha with Barnyardgrass [14] turned out to be 95%; with Johnsongrass [15], 95%; with Velvetleaf [17], 100%; in the assay with Green Foxtail [18] it was 90%; in the assay with Johnsongrass [19], 70%; with Green Foxtail [20], 100%.
